From the Deep4Chem optical property database come the findings set out here.

This data set can be described thus: solvent given as SMILES.

Where “and” joins values, the source holds several entries; their conditions need not be identical. Equal values may be shown once.

For `CC(C)(C)c1ccc2c(c1)c1cc(C(C)(C)C)cc3c1n2B1c2c-3cccc2-c2cc(C(C)(C)C)cc3c4cc(C(C)(C)C)ccc4n1c23`, the absorption maximum (in C1CCOC1) is on record as 387 nm.
Consider `CCC(C)(C)c1ccc2c(c1)C(CCOC)(CCOC)c1cc(-c3ccc4c(c3)C(CCOC)(CCOC)c3cc(C(C)(C)CC)ccc3-4)ccc1-2`, for which the absorption maximum (in C1CCCCC1) was determined as 331 nm.
Consider `O=C([O-])c1c(Cl)c(Cl)c(Cl)c(Cl)c1-c1c2cc(Cl)c(=O)c(Cl)c-2oc2c(Cl)c(O)c(Cl)cc12`, for which, under “in O”, the absorption maximum came to 537 nm.
`O=C1c2ccccc2-c2nc3ccccc3n21` showed an absorption maximum (in ClCCl) of 340 nm.
On the same count and under the same terms, the result for `N#Cc1ccc(-c2cn3cc(C#N)c[n+]3[n-]2)cc1` reads 360 nm.
`Cc1c[nH]c(=O)[nH]c1=O`: the absorption maximum (in CC#N) is 261 nm.
For the setting “in Cc1ccccc1”, `c1ccc(-c2cc(-c3ccc(N4c5ccccc5C(c5ccccc5)(c5ccccc5)c5ccccc54)cc3)nc(-c3ccccc3)n2)cc1` yielded an absorption maximum of 368.88 nm.
In the case of `c1ccc(-c2nc(-c3ccc(N4CCCC4)cc3)cc(-c3ccc4ccccc4c3)n2)cc1`, the absorption maximum (in ClC(Cl)Cl) worked out at 430 nm.
On to `CN(C)c1ccc(/C=C/c2cc[n+](C)cc2)cc1`, for which the absorption maximum is 483 nm (in C1CCOC1); 473 nm (in CC1COC(=O)O1); 470 nm (in CC#N); 474 nm and 468 nm (in CC(C)=O); 477 nm (in CC(C)O); 480 nm (in CCO). In addition, the absorption maximum runs as follows: (in CCOC(C)=O) 464 nm; (in CO) 476 nm and 474 nm; (in CS(C)=O) 471 nm; (in ClC(Cl)Cl) 500 nm; (in ClCCl) 522 nm; (in O) 448 nm. The absorption maximum (in c1ccncc1) is listed as 494 nm.
With `COc1ccc(-n2nc(C#N)c(N3CCCCCC3)n2)cc1`, the absorption maximum (in CC#N) is 344 nm.
As to `c1ccc(-c2nc(-c3ccccc3)c(N(c3ccccc3)c3ccccc3)s2)cc1`, for the setting “in ClC(Cl)Cl”, the absorption maximum was 367 nm.
For the compound `CC(C)(C)c1ccc(-c2c(-c3ccc(N(c4ccccc4)c4ccccc4)cc3)cc(-c3ccc(N(c4ccccc4)c4ccccc4)cc3)c(-c3ccc(C(C)(C)C)cc3)c2-c2ccc(C(C)(C)C)cc2)cc1`, the absorption maximum (in C1CCOC1) is recorded as 316 nm.
As to `CCCCCCCCCCOc1cc(OCCCCCCCCCC)cc(C2=C3C(/C=C/c4ccc(N(C)C)cc4)=C(C#Cc4ccc(C(C)(C)C)cc4)C(/C=C/c4ccc(N(C)C)cc4)=[N+]3[B-](F)(F)n3c(/C=C/c4ccc(N(C)C)cc4)c(C#Cc4ccc(C(C)(C)C)cc4)c(/C=C/c4ccc(N(C)C)cc4)c32)c1`, the absorption maximum (in ClC(Cl)Cl) came out at 797 nm.
As for `CC(C)c1cccc(C(C)C)c1-n1c(=O)c2cc3nc(-c4ccccc4)c4cc5c(=O)n(-c6c(C(C)C)cccc6C(C)C)c(=O)c6cc7c(-c8ccccc8)nc8cc(c1=O)c2c1c3c4c(c56)c7c81`, under “in ClC(Cl)Cl”, the absorption maximum is reported as 480 nm.
Regarding `CC(C)(C)c1cc(C[n+]2ccc(-c3cc[n+](Cc4cc(C(C)(C)C)cc(C(C)(C)C)c4)cc3)cc2)cc(C(C)(C)C)c1`, the absorption maximum (in CC#N) turned out to be 259 nm.
Where the note is “in ClCCl”, `CCCCCCCCOc1cc(/C=C/c2cc(OCCCCCCCC)c(/C=C/c3cc(OCCCCCCCC)c(Br)cc3OCCCCCCCC)cc2OCCCCCCCC)c(OCCCCCCCC)cc1Br` showed an absorption maximum of 410 nm.
`Cc1cc(C)c(C)c(B(c2c(C)c(C)cc(C)c2C)c2c(C)c(C)c(N3c4ccccc4Oc4ccccc43)c(C)c2C)c1C`: where the note is “in CC(C)(C)c1ccc(-n2c3ccc([Si](c4ccccc4)(c4ccccc4)c4ccccc4)cc3c3cc([Si](c4ccccc4)(c4ccccc4)c4ccccc4)ccc32)cc1”, the absorption maximum was 373 nm.
In the case of `CC[N+]1(CC)CN2C(=N1)C(C(=O)[O-])=Cc1ccccc12`, the absorption maximum runs as follows: (in CN(C)C=O) 378 nm; (in O) 369 nm.
Consider `CCN(CC)c1cc(NC(C)=O)c(/N=N/c2cc3c(=O)[nH][nH]c(=O)c3cc2[N+](=O)[O-])cc1OC`, for which the absorption maximum was determined as 556 nm (in CC(=O)O), 550 nm (in CN(C)C=O) and 553 nm (in CS(C)=O).
For `CC(C)(C)/C=C1\C=C(c2ccccc2)C=C1c1ccccc1`, the absorption maximum (in C1CCOC1) came out at 400 nm.
